Activity and MIC data for five molecules are collected here from ChEMBL document CHEMBL1137809, “Antifungal activity of benzoic acid derivatives from Piper lanceaefolium” (2002).

Values after ≈ are worked out from the molar mass of the structure shown. Active and inactive are the calls of the source. No cut-off for these calls is given here.

Test [1] deals with Cladosporium cucumerinum. In words: Antifungal activity against Cladosporium cucumerinum at 5 ug by bioautographic TLC test. The format is functional, organism-based.
Test [2] relates to Candida albicans. In words: Antifungal activity against Candida albicans after 24 hrs by broth dilution assay. The format is functional. For orientation: In broth dilution the organism is exposed to a series of concentrations in liquid medium.

For orientation: MIC means the lowest concentration found to suppress growth. Low readings indicate a more susceptible organism, high ones a less susceptible organism.

In the case of `CC(C)=CC(=O)c1cc(C(=O)O)ccc1O`, the outcome in test [1] and in test [2] was inactive.
For `COC(=O)c1cc(O)c2c(c1)C(=O)CC(C)(C)O2`, the result in test [2] was inactive.
In turn, `COC(=O)c1cc(O)c(O)c(C(=O)C=C(C)C)c1` [LANCEAEFOLIC ACID METHYL ESTER] displayed an MIC in test [2] of 100 µg/mL (≈ 400 µM).
In the case of `CC(C)=CC(=O)c1cc(C(=O)O)cc(O)c1O`, in test [2], the outcome was inactive.
Regarding `CC1(C)CC(=O)c2cc(C(=O)O)cc(O)c2O1`, in test [2], the result was inactive.
